Experimental data as given in ChEMBL document CHEMBL1806444, “Synthesis of new chalcone derivatives bearing 2,4-thiazolidinedione and benzoic acid moieties as potential anti-bacterial agents” (2011).

Assays:
Type in all cases: functional
Staphylococcus aureus [1] = test: Antibacterial activity against 10^5 CFU/mL Staphylococcus aureus KCTC 503 assessed as inhibition of bacterial growth after 24 hrs by microtiter enzyme-linked immunosorbent assay; details: KCTC 503, 24 h
Escherichia coli [2] = test: Antibacterial activity against 10^5 CFU/mL Escherichia coli 1356 assessed as inhibition of bacterial growth after 24 hrs by microtiter enzyme-linked immunosorbent assay; details: Escherichia coli, 1356, 24 h
Escherichia coli [3] = test: Antibacterial activity against 10^5 CFU/mL Escherichia coli 1682 assessed as inhibition of bacterial growth after 24 hrs by microtiter enzyme-linked immunosorbent assay; details: Escherichia coli, 1682, 24 h
Staphylococcus aureus [4] = test: Antibacterial activity against 10^5 CFU/mL Staphylococcus aureus RN4220 assessed as inhibition of bacterial growth after 24 hrs by microtiter enzyme-linked immunosorbent assay; details: RN4220, 24 h

Measured: MIC

COC(=O)c1ccc(CN2C(=O)S/C(=C\c3ccc(/C=C/C(=O)c4ccccc4O)cc3)C2=O)cc1
> 64 µg/mL: all assays above

COC(=O)c1ccc(CN2C(=O)S/C(=C\c3ccc(/C=C/C(=O)c4cccc(O)c4)cc3)C2=O)cc1
> 64 µg/mL: all assays above

COC(=O)c1ccc(CN2C(=O)S/C(=C\c3ccc(/C=C/C(=O)c4ccccc4OC)cc3)C2=O)cc1
> 64 µg/mL: all assays above

COC(=O)c1ccc(CN2C(=O)S/C(=C\c3ccc(/C=C/C(=O)c4cccc(OC)c4)cc3)C2=O)cc1
> 64 µg/mL: all assays above

COC(=O)c1ccc(CN2C(=O)S/C(=C\c3ccc(/C=C/C(=O)c4cccc(Br)c4)cc3)C2=O)cc1
> 64 µg/mL: all assays above

COC(=O)c1ccc(CN2C(=O)S/C(=C\c3ccc(/C=C/C(=O)c4ccc(Br)cc4)cc3)C2=O)cc1
> 64 µg/mL: all assays above

COC(=O)c1ccc(CN2C(=O)S/C(=C\c3ccc(/C=C/C(=O)c4ccc(Cl)cc4)cc3)C2=O)cc1
> 64 µg/mL: all assays above

COC(=O)c1ccc(CN2C(=O)S/C(=C\c3ccc(/C=C/C(=O)c4ccccc4Br)cc3)C2=O)cc1
> 64 µg/mL: all assays above

COC(=O)c1ccc(CN2C(=O)S/C(=C\c3ccc(/C=C/C(=O)c4ccccc4Cl)cc3)C2=O)cc1
> 64 µg/mL: all assays above

COC(=O)c1ccc(CN2C(=O)S/C(=C\c3ccc(/C=C/C(=O)c4cccc(Cl)c4)cc3)C2=O)cc1
> 64 µg/mL: all assays above

COC(=O)c1ccc(CN2C(=O)S/C(=C\c3ccc(/C=C/C(=O)c4ccccc4F)cc3)C2=O)cc1
> 64 µg/mL: all assays above

COC(=O)c1ccc(CN2C(=O)S/C(=C\c3ccc(/C=C/C(=O)c4ccc(F)cc4)cc3)C2=O)cc1
> 64 µg/mL: all assays above

COC(=O)c1ccc(CN2C(=O)S/C(=C\c3ccc(/C=C/C(=O)c4ccc(C)cc4C)cc3)C2=O)cc1
> 64 µg/mL: all assays above

COC(=O)c1ccc(CN2C(=O)S/C(=C\c3ccc(/C=C/C(=O)c4ccc(Cl)cc4Cl)cc3)C2=O)cc1
> 64 µg/mL: all assays above

COC(=O)c1ccc(CN2C(=O)S/C(=C\c3ccc(/C=C/C(=O)c4ccccc4)cc3)C2=O)cc1
> 64 µg/mL: all assays above

COC(=O)c1ccc(CN2C(=O)S/C(=C\c3ccc(/C=C/C(=O)c4ccc5ccccc5c4)cc3)C2=O)cc1
> 64 µg/mL: all assays above

COC(=O)c1ccc(CN2C(=O)S/C(=C\c3ccc(/C=C/C(=O)c4ccc(C)cc4)cc3)C2=O)cc1
> 64 µg/mL: all assays above

O=C(O)c1ccc(CN2C(=O)S/C(=C\c3ccc(/C=C/C(=O)c4ccc5ccccc5c4)cc3)C2=O)cc1
> 64 µg/mL: all assays above

Cc1ccc(C(=O)/C=C/c2ccc(/C=C3\SC(=O)N(Cc4ccc(C(=O)O)cc4)C3=O)cc2)cc1
> 64 µg/mL: all assays above

Cc1ccc(C(=O)/C=C/c2ccc(/C=C3\SC(=O)N(Cc4ccc(C(=O)O)cc4)C3=O)cc2)c(C)c1
> 64 µg/mL: all assays above
